The source of these data is article PMC12037037 (Proceedings of the National Academy of Sciences of the …, 2025).

SMILES strings stand for the structures.

In assay [1] the target is 5-HT2A receptor membrane preparations obtained from PSYLI2 cells (Homo sapiens, UniProt P28223). Put plainly: Ligand binding kinetics with [3H]-LSD on PSYLI2 membrane preparations. Conditions: kinetics of competition binding vs [3H]-LSD.
Method: Ligand binding kinetics at the 5-HT2AR.
Data represent the mean ± SEM of 2–3 biological replicates.
Data represent the mean ± SEM of 2–4 biological replicates.
Binding buffer consisted of 50 mM Tris HCl, 10 mM MgCl2, 0.1 mM EDTA disodium dihydrate in autoclaved
deionized water. The solution was adjusted to pH 7.4 with 10 M NaOH(aq) and stored at 4 °C. This solution was used in
membrane preparation generation as well as competition and kinetics assays.
free, see 15) were grown in 15-cm plates with Dulbecco’s Modified Eagle Media (DMEM) containing 10% fetal bovine serum and 1% penicillin/streptomycin. When the cells were >90% confluent, the media was removed, and the cells were washed
with Dulbecco’s Phosphate Buffered Saline (DPBS) (15 mL). Next, DMEM (15 mL) lacking fetal bovine serum and
penicillin/streptomycin was added, and the cells were serum-starved for 4–12 hours. Roughly 10 mL of the DMEM was
removed, leaving ~5 mL of media in the plates before placing them on ice. Once on ice, the plates were scraped and the
contents were transferred to a pre-chilled 50 mL Falcon tube and then centrifuged (2,000 g, 10 min, 4 °C). The supernatant […]
of 0.25 mL to use for quantification of protein concentration via a Bradford assay with a Coomassie protein assay reagent. […]
For association binding experiments, total and nonspecific binding was determined by adding binding buffer (2.5X solution, […]
Assay [2] relates to Thy1-EGFP mice, layer 2/3 of the mPFC. Put plainly: In vivo spinogenesis after chronic corticosterone administration. Conditions: chronic CORT (20 mg/kg IP daily, 20 d) + VEH; GH VEH 12.17 ± 0.5278; mean ± SEM.
Method: In Vivo Spinogenesis after chronic corticosterone administration. Male and female Thy1-EGFP mice were given 1 week to acclimate to the new vivarium, then transferred to new cages (individually housed). Once individually housed, the mice were administered corticosterone (20 mg/kg; IP) in DMSO (2 mL/kg) or gently handled daily for 20 days. On day 21, mice were treated with VEH (saline) or (+)-JRT (1 mg/kg; IP). After 24 h, mice were anesthetized with isoflurane and transcardially perfused with paraformaldehyde (PFA, 4% in PBS, 7.4 pH). After extraction of the brains, samples were fixed in 4% PFA at 4° C overnight. The brains were cryo-protected by immersion in a 15% sucrose solution (15% sucrose in PBS w/v) overnight. Next, samples were placed in 30% sucrose solution (30% sucrose in PBS w/v) for at least 1 day. Samples were then embedded in optimal cutting temperature compound (OCT), sliced into 100 µm coronal sections using a cryostat, and mounted on slides which were left in the dark overnight to dry. Coverslips were mounted onto microscope slides using ProLong Gold. Slides were imaged on a Nikon HCA Spinning Disc confocal microscope equipped with a 100x/NA 1.45 oil objective. Images of dendrites and dendritic spines within layer 2/3 of the mPFC were captured and manually counted by a trained experimenter blinded to treatment conditions.
For another assay, the system named is C57BL/6J mice. Put plainly: Sucrose preference test (SPT) after chronic CORT. The class given is in vivo. Conditions: after 20 d CORT 20 mg/kg IP; baseline 0.7980 ± 0.03533. As for the experimental part: remained housed in groups of three for the remainder of the study. All rats were acclimated to the colony room for up to one week prior to dosing. During the period of acclimation, rats were examined and handled daily, and weighed to assure adequate health and suitability. The room temperature was maintained between 20 °C and 23 °C with a relative humidity of 30%–70%. Lab Rodent Diet 5001 (W.F. Fisher, Cat # 11015) and water were provided ad libitum. Animals were randomly assigned across treatment groups. All testing was performed during the light phase of the light/dark cycle. Behavioral testing was conducted according to established protocols approved by the IACUC committee and PGI Standard Operation Procedures (SOP). […] All animals were carefully monitored to ensure their safety in the swim test and any animal unable to maintain a posture with its nose above water was immediately removed from the water and not used further in the study. […] This test lasted for 5 min and was video recorded. A blinded experimenter manually scored the videos for swimming, climbing, and immobility behavior. Scoring of the forced swim test was performed by trained technicians using a time sampling technique in which the animal in the video recorded test was viewed every 5 seconds and the behavior observed was noted (e.g., immobile, swimming, or climbing). […]

Assay [3] concerns the target 5-HT1B (h) (antagonist radioligand). More on the design: method as in ref Pharmacological Differentiation and Characterization of 5-HT1A, 5-HT1B, and 5-HT1C Binding Sites in Rat Frontal Cortex. Conditions: read-out: Ki of LSD; radioligand 5-HT; Rat cortex; ref Pharmacological Differentiation and Characterization of 5-HT1A, 5-HT1B, and 5-HT1C Binding Sites in Rat Frontal Cortex; cited from earlier work.

The target of assay [4] is 5-HT5a (h) (agonist radioligand). Conditions: read-out: Ki of LSD, Rat cloned, ref Lysergamides of isomeric 2,4-dimethylazetidines map the binding orientation of the diethylamide moiety in the potent hallucinogenic agent N,N-diethyllysergamide (LSD); cited from earlier work.
Assay [5] deals with alpha 1 (non-selective) (antagonist radioligand). More on the design: method as in ref Receptor interaction profiles of novel N-2-methoxybenzyl (NBOMe) derivatives of 2,5-dimethoxy-substituted phenethylamines (2C drugs). Conditions: read-out: Ki of LSD; radioligand prazosin; Human cloned; ref Receptor interaction profiles of novel N-2-methoxybenzyl (NBOMe) derivatives of 2,5-dimethoxy-substituted phenethylamines (2C drugs); cited from earlier work.

The target in assay [6] is D1 (h) (antagonist radioligand). More on the design: method as in ref Mefloquine and psychotomimetics share neurotransmitter receptor and transporter interactions in vitro. Conditions: read-out: Ki of LSD; radioligand SCH 23390; Human cloned; ref Mefloquine and psychotomimetics share neurotransmitter receptor and transporter interactions in vitro; cited from earlier work.

In assay [7] the target is alpha 2 (non-selective) (antagonist radioligand). More on the design: method as in ref Receptor interaction profiles of novel N-2-methoxybenzyl (NBOMe) derivatives of 2,5-dimethoxy-substituted phenethylamines (2C drugs). Conditions: read-out: Ki of LSD; radioligand Rauwolscine; Human cloned; ref Receptor interaction profiles of novel N-2-methoxybenzyl (NBOMe) derivatives of 2,5-dimethoxy-substituted phenethylamines (2C drugs); cited from earlier work.

The target in assay [8] is 5-HT2B (h) (agonist radioligand). Conditions: read-out: Ki of LSD; radioligand 5-HT; Human cloned; ref Pharmacological characterisation of the agonist radioligand binding site of 5-HT(2A), 5-HT(2B) and 5-HT(2C) receptors; cited from earlier work.
In assay [9] the target is 5-HT7 (h) (agonist radioligand). More on the design: method as in Molecular biology of 5-HT receptors. Conditions: read-out: Ki of LSD; radioligand 5-HT; Rat cloned; ref Molecular biology of 5-HT receptors; cited from earlier work.
Assay [10] deals with beta 1 (h) (agonist radioligand). Conditions: read-out: Ki of LSD; radioligand 125I-pindolol; Rat cloned; ref Lysergamides of isomeric 2,4-dimethylazetidines map the binding orientation of the diethylamide moiety in the potent hallucinogenic agent N,N-diethyllysergamide (LSD); cited from earlier work.
For assay [11], the system named is E18 rat embryonic cortical neurons (DIV18-19). Put plainly: Spinogenesis assay using cultured rat cortical neurons. Type of assay: cell-based. Conditions: compound 1 μM.
In assay [12] the target is D2S (h) (antagonist radioligand). More on the design: method as in ref Mefloquine and psychotomimetics share neurotransmitter receptor and transporter interactions in vitro. Conditions: read-out: Ki of LSD; radioligand [3H]YM-09151-2; Human cloned; ref Mefloquine and psychotomimetics share neurotransmitter receptor and transporter interactions in vitro; cited from earlier work.

Usually Ki stands for the equilibrium dissociation constant of an inhibitor or competing ligand from its target.

5-HT2A receptor membrane preparations obtained from PSYLI2 cells, sequence (P28223 1-263 limits assumed): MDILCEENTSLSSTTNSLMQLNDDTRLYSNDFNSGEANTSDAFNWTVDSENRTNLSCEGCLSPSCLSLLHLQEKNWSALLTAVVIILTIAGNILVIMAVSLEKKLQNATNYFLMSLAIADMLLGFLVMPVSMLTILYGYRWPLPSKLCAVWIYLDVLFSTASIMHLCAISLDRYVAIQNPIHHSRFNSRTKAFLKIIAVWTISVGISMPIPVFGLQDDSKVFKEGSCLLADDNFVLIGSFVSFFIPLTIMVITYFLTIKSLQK
5-HT2A receptor membrane preparations obtained from PSYLI2 cells, sequence (P28223 316-471 limits assumed): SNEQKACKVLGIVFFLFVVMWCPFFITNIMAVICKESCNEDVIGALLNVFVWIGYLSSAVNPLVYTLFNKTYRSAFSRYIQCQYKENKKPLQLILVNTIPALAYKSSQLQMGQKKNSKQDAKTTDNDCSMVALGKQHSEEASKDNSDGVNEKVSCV

On to `CCN(CC)CCc1c[nH]c2cc(F)ccc12` [6-F-DET, 6-fluoro-N,N-diethyltryptamine, reference compound], for which, in assay [1], the “Dissociation rate from the 5-HT2A receptor, fold faster than LSD” value is recorded as approximately 100 fold.
For `C[C@]12C[C@H](O)[C@H]3[C@@H](CCC4=CC(=O)CC[C@@]43C)[C@@H]1CC[C@@H]2C(=O)CO` [CORT, corticosterone, reference compound], the “Dendritic spine density, layer 2/3 mPFC (Table S1, matches Fig. 4N)” value in assay [2] amounted to 8.570 ± 0.4350. The “Sucrose preference post-CORT (Figure 6D)” value in the assay with C57BL/6J mice stood at 0.5563 ± 0.08424.
For the compound `CCN(CC)C(=O)[C@@H]1C=C2c3cccc4[nH]cc(c34)C[C@H]2N(C)C1` [LSD, lysergic acid diethylamide], the Ki in [3] is 170 nM; in assay [4], 9 nM; in assay [5], 670 nM; in assay [6] it was 273 nM; in assay [7], 12 nM; in [8] it was 0.977 nM. Besides, the Ki in assay [9] was 200 nM; in [10], 140 nM; in assay [12], 38 nM. The “Effect of ketanserin (10 μM) pretreatment on compound-induced dendritic spine density” value in [11] is “blocks”.
